# Assay results published in BigSolDB 2.1.
compound,measurement,setting,value
CCOC(=O)C1(c2ccccc2)CCN(CCC(C#N)(c2ccccc2)c2ccccc2)CC1,solubility (mole fraction),"in acetonitrile, 278.15 K",0.00208
same,solubility (mole fraction),"in acetonitrile, 283.15 K",0.00256
same,solubility (mole fraction),"in acetonitrile, 288.15 K",0.0033
same,solubility (mole fraction),"in acetonitrile, 293.15 K",0.00386
same,solubility (mole fraction),"in acetonitrile, 298.15 K",0.00492
same,solubility (mole fraction),"in acetonitrile, 303.15 K",0.0059
same,solubility (mole fraction),"in acetonitrile, 308.15 K",0.00738
same,solubility (mole fraction),"in acetonitrile, 313.15 K",0.00941
same,solubility (mole fraction),"in acetonitrile, 318.15 K",0.0126
same,solubility (mole fraction),"in ethanol, 278.15 K",0.000882
same,solubility (mole fraction),"in ethanol, 283.15 K",0.00109
same,solubility (mole fraction),"in ethanol, 288.15 K",0.00127
same,solubility (mole fraction),"in ethanol, 293.15 K",0.00154
same,solubility (mole fraction),"in ethanol, 298.15 K",0.00193
same,solubility (mole fraction),"in ethanol, 303.15 K",0.00227
same,solubility (mole fraction),"in ethanol, 308.15 K",0.00277
same,solubility (mole fraction),"in ethanol, 313.15 K",0.0034
same,solubility (mole fraction),"in ethanol, 318.15 K",0.00432
same,solubility (mole fraction),"in isopropanol, 278.15 K",0.000106
same,solubility (mole fraction),"in isopropanol, 283.15 K",0.000155
same,solubility (mole fraction),"in isopropanol, 288.15 K",0.000208
same,solubility (mole fraction),"in isopropanol, 293.15 K",0.000274
same,solubility (mole fraction),"in isopropanol, 298.15 K",0.000421
same,solubility (mole fraction),"in isopropanol, 303.15 K",0.000601
same,solubility (mole fraction),"in isopropanol, 308.15 K",0.000838
same,solubility (mole fraction),"in isopropanol, 313.15 K",0.00114
same,solubility (mole fraction),"in isopropanol, 318.15 K",0.00156
same,solubility (mole fraction),"in methanol, 278.15 K",0.00341
same,solubility (mole fraction),"in methanol, 283.15 K",0.00419
same,solubility (mole fraction),"in methanol, 288.15 K",0.00501
same,solubility (mole fraction),"in methanol, 293.15 K",0.0063
same,solubility (mole fraction),"in methanol, 298.15 K",0.00759
same,solubility (mole fraction),"in methanol, 303.15 K",0.00952
same,solubility (mole fraction),"in methanol, 308.15 K",0.0118
same,solubility (mole fraction),"in methanol, 313.15 K",0.0147
same,solubility (mole fraction),"in methanol, 318.15 K",0.0186
same,solubility (mole fraction),"in water, 278.15 K",4.09e-06
same,solubility (mole fraction),"in water, 283.15 K",5.3e-06
same,solubility (mole fraction),"in water, 288.15 K",6.84e-06
same,solubility (mole fraction),"in water, 293.15 K",9.18e-06
same,solubility (mole fraction),"in water, 298.15 K",1.14e-05
same,solubility (mole fraction),"in water, 303.15 K",1.48e-05
same,solubility (mole fraction),"in water, 308.15 K",1.91e-05
same,solubility (mole fraction),"in water, 313.15 K",2.54e-05
same,solubility (mole fraction),"in water, 318.15 K",3.28e-05
